Test results reported in PubChem BioAssay (NCI).
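Where inhibition never reached the appropriate level, the endpoint shown equals the highest concentration tested. Otherwise, values were interpolated linearly from a five-concentration, 48-hour dose response in 96-well plates. GI50 = concentration required for 50% inhibition of growth. TGI denotes the concentration required for complete inhibition of growth.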

Assays:
Assay in all cases: NCI tumour cell line growth inhibition, 48 h
SNB-75 CNS = system: SNB-75 CNS
OVCAR-4 ovarian = system: OVCAR-4 ovarian
NCI-H23 lung = system: NCI-H23 lung
HOP-92 NSCLC = system: HOP-92 NSCLC
UO-31 renal = system: UO-31 renal
SNB-19 CNS = system: SNB-19 CNS
HOP-62 NSCLC = system: HOP-62 NSCLC
NCI-H460 lung = system: NCI-H460 lung
SK-MEL-2 melanoma = system: SK-MEL-2 melanoma
DMS 273 small cell lung = system: DMS 273 small cell lung

Row | SMILES | TGI (SNB-75 CNS) [µM] | TGI (OVCAR-4 ovarian) [µM] | TGI (NCI-H23 lung) [µM] | TGI (HOP-92 NSCLC) [µM] | TGI (UO-31 renal) [µM] | TGI (SNB-19 CNS) [µM] | TGI (HOP-62 NSCLC) [µM] | TGI (NCI-H460 lung) [µM] | TGI (SK-MEL-2 melanoma) [µM] | GI50 (SNB-75 CNS) [µM] | GI50 (OVCAR-4 ovarian) [µM] | GI50 (NCI-H23 lung) [µM] | GI50 (HOP-92 NSCLC) [µM] | GI50 (UO-31 renal) [µM] | GI50 (SNB-19 CNS) [µM] | GI50 (HOP-62 NSCLC) [µM] | GI50 (NCI-H460 lung) [µM] | GI50 (SK-MEL-2 melanoma) [µM] | TGI (DMS 273 small cell lung) [µM]
1 | COc1ccc(/C(C)=N/OC(=O)c2c(-c3ccccc3Cl)noc2C)cc1CN1CCOCC1 | 94 | > 100 | > 100 | 91.8 | 22.3 | 46.2 | 62.1 | > 100 | 34.2 | – | – | – | – | – | – | – | – | – | –
2 | CCOC(=O)c1sc(=S)c2c(C(=O)OCC)c(C(=O)OCC)sc2c1C(=O)OCC | > 100 | 56.9 | 35.5 | 23 | 30.9 | > 100 | 33.4 | 51.2 | 44.7 | 40.3 | 20.7 | 17.4 | 10.3 | 15.1 | 32.2 | 17.6 | 21.4 | 21.2 | –
3 | CC(=O)N=c1ccc2nc3c(cc(N)c4ccccc43)oc-2c1 | 3.34 | 1.64 | 4.25 | 4.94 | 2.46 | 3.46 | 1.83 | 4.24 | 3.34 | 1.83 | 0.409 | 1.27 | 1.4 | 1.03 | 1.71 | 0.573 | 1.85 | 1.57 | –
4 | C[C@@]12CCC(=O)C=C1CC[C@H]1C2=CC[C@]2(C)C1CC[C@@]2(C)O (some centres not stated) | > 100 | > 100 | > 100 | > 100 | > 100 | > 100 | > 100 | > 100 | > 100 | – | – | – | – | – | – | – | – | – | –
5 | CCOC(=O)c1sc(Nc2ccc(Cl)cc2)nc1C | 4.24 | 19 | 3.56 | 1.81 | 2.5 | 6.25 | 5.06 | 6.31 | 4.2 | 1.43 | 2.04 | 1.5 | 0.346 | 1.15 | 2.08 | 1.89 | 2.34 | 2.1 | –
6 | COC(=O)C1=C(CO)C2C=CC1C2 (configuration not stated) | > 100 | > 100 | > 100 | – | > 100 | > 100 | > 100 | > 100 | > 100 | – | – | – | – | – | – | – | – | – | > 100
7 | O=c1c2ccccc2c2nc3ccccc3nc2n1C1CCCCC1 | > 100 | > 100 | > 100 | – | > 100 | > 100 | – | – | > 100 | – | – | – | – | – | – | – | – | – | > 100
8 | COc1cc2nc(Nc3cccc(F)c3)nc(Nc3cc(C)[nH]n3)c2cc1OC | 2.95 | 3.49 | 3.27 | 3.21 | 3.29 | 4.05 | 3.62 | 3.74 | 4.08 | 1.52 | 1.68 | 1.69 | 1.67 | 1.77 | 1.95 | 1.87 | 1.83 | 2.1 | –
9 | COc1cc(C(=O)c2cc3c(cc2C)OCO3)cc(OC)c1OC | > 100 | > 100 | > 100 | 48.6 | > 100 | > 100 | > 100 | > 33.2 | > 100 | 0.0429 | 0.83 | 0.319 | 0.0855 | 0.624 | – | 0.17 | 0.124 | 0.734 | –
10 | COc1ccc2c(c1)CC[C@@H]1[C@@H]2CC[C@]2(C)C(c3ccco3)=C(C=O)C[C@@H]12 | > 100 | > 100 | 69.4 | 28 | > 100 | > 100 | 46.2 | 35.7 | 88.1 | 27.9 | 20 | 12.7 | 8.38 | 31 | 9.3 | 20.9 | 5.75 | 29.2 | –
11 | COc1ccc(/C=C/c2n[nH]c3ccc(N4CCOC4=O)cc23)cc1 | 18 | > 100 | 6.18 | 9.09 | 9.92 | > 100 | 13 | 11.8 | 6.21 | 2.5 | 5.06 | 1.79 | 4 | 2.52 | 3.12 | 2.14 | 1.95 | 2.53 | –
12 | CCCN(CCC)c1ccc(/C=N/NC(=O)c2cccnc2)c(Cl)c1 | 39.9 | 35.7 | 45.4 | 25.2 | 38.2 | > 100 | 28.6 | 17.2 | 30.4 | 11.4 | 2.32 | 14.1 | 8.95 | 14.3 | 16.6 | 10.3 | 3.63 | 14.2 | –
13 | CCn1cnc2c(Nc3cccc(Cl)c3)nc(N[C@@H]3CCCC[C@@H]3N)nc21 | 2.23 | 5.43 | 3.59 | 3.57 | 4.04 | 8.17 | 3.71 | 3.7 | 3.43 | 0.745 | 1.68 | 1.38 | 1.04 | 1.6 | 2.07 | 1.52 | 1.23 | 1.65 | –
14 | N#Cc1ccnc(N2C(=O)CC[C@H]2C(=O)N(c2cncc(F)c2)[C@H](C(=O)NC2CC(F)(F)C2)c2ccccc2Cl)c1 | > 100 | > 100 | > 100 | > 100 | > 100 | > 100 | > 100 | > 100 | > 100 | 16.7 | 39.1 | > 100 | 73 | 18.3 | > 100 | > 100 | 73.3 | > 100 | –
15 | Nc1ncnc2c1ncn2C1OC(CO)=CC1O (configuration not stated) | > 37.5 | > 37.5 | > 37.5 | > 37.5 | > 37.5 | > 37.5 | > 37.5 | > 37.5 | > 37.5 | – | – | – | – | – | – | – | – | – | –
